These results are taken from publication PMC10578352, “Identification of a Protein Arginine Methyltransferase 7 (PRMT7)/Protein Arginine Methyltransferase 9 (PRMT9) Inhibitor” (Journal of Medicinal Chemistry, 2023).

The subject of test [1] is SET-domain-containing enzymes. Put plainly: Selectivity against the panel of SET-domain-containing KMTs. The following applies: highest tested concentration 100 μM. In kind it is biochemical, human. As for the experimental part: . […] After incubation for 60 min at 30 °C, the reaction mixture was delivered to filter paper for detection (as assessed by scintillation). […] Data were analyzed using Excel and GraphPad Prism 6.0 software (GraphPad Software Inc., San Diego, CA). Values obtained for each compound are mean ± SD determined for two separate experiments.

Test [2] addresses T1, MLL1/KMT2A (5 component complex) (Homo sapiens, UniProt Q03164).
T1 construct: MLL1 residues 3745–3969, C-terminus; His (N); purchased Reaction Biology Corporation
Nature of the test: HotSpot KMT activity assay, MLL1. In kind it is biochemical. Conditions: read-out: % MLL1 residual activity. An excerpt:
; MW = 35.4 kDa; Genbank Accession # NM_018489), or the human recombinant EZH2-containing five-member polycomb repressive complex 2 (including EZH2 residues 2–746, AEBP2 2–517, EED 2–441, RbAp48 2–425, SUZ12 2–739; all full-length; with N-terminal Flag-tag on EED and N-terminal His-tag on all others; MW = 333.8 kDa; Genbank Accession # NM_001203247, NM_001114176, NM_003797, NM_005610, NM_015355), or the human recombinant G9a (residues 913–1193, C-terminus; with an N-terminal His-tag; MW = 34.6 kDa; Genbank Accession # NM_006709.3), or the human recombinant MLL1 complex (including MLL1 residues 3745–3969, C-terminus, WDR5 22–334, C-terminus, RbBP5 1–538, C-terminus, ASH2L 2–534, C-terminus, DPY-30 1–99, C-terminus; N-terminal His-tag on all subunits; MW = 212.0 kDa; Genbank Accession # NM_005933, NM_017588, NM_005057, NM_001105214, NM_0325742), or the human recombinant SET7/9 (residues 2–366, C-terminus; with a N-terminal GST-tag and a C-terminal His-tag; MW = 68.5 kDa; Genbank Accession # NM_030648), or the human recombinant SMYD3 (residues 2–428, C-terminus; C-terminal His-tag; MW = 50.1 kDa; Genbank Accession # NM_001167740), or the human recombinant SUV39H2 (residues 46–410, C-terminus; N-terminal fusion protein with a C-terminal His-tag; MW = 98.8 kDa; GenBank Accession No. NM_001193424), or the human recombinant DOT1L (residues 1–416; N-terminal GST-tag; MW = 80.0 kDa; Genbank Accession # NM_032482) was added to a solution of the proper substrate (oligo nucleosomes for ASH1L, MLL1 complex, and DOT1L, final concentration 0.05 mg/mL; core histone for EZH2 complex and SET7/9, final concentration 0.05 mg/mL; histone H3 for SUV39H2, final concentration 5 μM; histone H3 1–21 for G9a, final concentration 2.5 μM) in freshly prepared reaction buffer (50 mM Tris-HCl (pH 8.5), 5 mM MgCl2, 50 mM NaCl, 1 mM DTT, 1 mM PMSF, 1% DMSO) and gently mixed. […] After incubation for 60 min at 30 °C, the reaction mixture was delivered to filter paper for detection (as assessed by scintillation). […] Values obtained for each compound are mean ± SD determined for two separate experiments.

Each structure is given as a SMILES string. Entries after “also recorded” stand apart in the source; their conditions may differ.

Consider `COC(=O)c1cc(O)c2cc(NC(=O)NCCCNC(=N)NC[C@H]3O[C@@H](n4cnc5c(N)ncnc54)[C@H](O)[C@@H]3O)cc(C(F)(F)F)c2c1` [1j, Methyl 6-(3-(3-(3-(((2R,3S,4R,5R)-5-(6-Amino-9H-purin-9-yl)-3,4-dihydroxytetrahydrofuran-2-yl)methyl)guanidino)propyl)ureido)-4-hydroxy-8-(trifluoromethyl)-2-naphthoate], for which, in test [1], the “inhibition of SET-domain-containing enzymes (in words)” value is reported as “none of the SET-domain-containing enzymes was inhibited; also recorded: not inhibited”. Further, in test [2] (10 μM), the remaining activity at 10 µM was 90.5 ± 2.83%. Also, the remaining activity at 100 µM in test [2] (100 μM) was 76.9 ± 3.96%.
